Entries after “also recorded” stand apart in the source; their conditions may differ. Like-named read-outs stand apart in the source and are kept apart here.

Data set [1] concerns the target T1, hNaV1.6 (Homo sapiens, UniProt Q9UQD0).
T1 construct: expressed in transfected cells; host or cells: HEK cells
The data set is described as follows: Peak INa voltage-dependent block (VDB), automated patch clamp in HEK cells. Type of data set: cell-based. As to conditions: for Ratio to Pers. INa (Peak INa VDB): VDB IC50 / persistent INa IC50; for Peak INa VDB Hill slope: voltage-dependent block. Background: Patch clamp records ionic current or voltage across a cell membrane.

In data set [2] the test system is MES-induced tonic hindlimb extension in male CD-1 mice. Kind of data set: MES acute seizure model, protection from tonic hindlimb extension (Example 9). Type of data set: in vivo, mouse. The note with it: for ED50: Mus musculus, administered dose. As for the experimental part:
Male CD-1 mice (Vital River, Beijing, China) approximately 6 weeks old were obtained for the study. Body weights were between 20.5 grams and 38.5 grams at the time the experiments were carried out. […] Food and water were available ad libitum.
Treatment was conducted using Compound 1 and 35% 2-hydroxypropyl-β-cyclodextrin (35% HPBCD, used as a negative control). Compound 1 stock solution was prepared fresh each experiment day in 35% HPBCD and protected from light. The stock solution was diluted with vehicle for lower doses.
Mice were brought to the test room at least one hour before the start of the experiment. Mice were administered valproate (VPA; 400 mg/kg, intraperitoneally); or vehicle (35% HPBCD, 10 mL/kg, intraperitoneally); or Compound 1 (0.3 mg/kg, 1 mg/kg, 3 mg/kg or 10 mg/kg, orally) 30 minutes prior to the MES test.
The electroshock apparatus was set to deliver a 50 mA square-wave stimulus, with a 0.8 second duration, a pulse width of 10 milliseconds, and a frequency of 50 Hz. A pair of custom stainless-steel electrodes were soaked in 0.2% agar, and then the subject received bilateral transauricular stimulation through ear-clip electrodes. During the stimulation, mice were manually restrained then released immediately into an observation cage where they were monitored continuously for 60 seconds by an observer blinded to treatment group.
Mice were anesthetized with CO2 and terminal plasma and brain tissue samples were collected. […] The supernatant plasma was pipetted into Eppendorf tubes.
All statistical analyses were conducted using GraphPad Prism 9.3. Means were combined and standard error was calculated using the Satterthwaite Approximation to combine standard deviations. […] ED50 and EC50 values were calculated from these fit curves.

Data set [3] addresses T1, hNaV1.6. Kind of data set: Apparent binding (KON) and unbinding (KOFF) rates inferred from INa inhibition kinetics. The note with it: read-out: apparent KON. The class given is cell-based.
Data set [4] deals with T2, human NaV1.6 (Homo sapiens, UniProt Q9UQD0).
T2 construct: HEK-293 cell lines stably expressing human NaV1.6 (NP_055006) were used; expressed in transfected cells
T2 sequence (Q9UQD0 whole entry): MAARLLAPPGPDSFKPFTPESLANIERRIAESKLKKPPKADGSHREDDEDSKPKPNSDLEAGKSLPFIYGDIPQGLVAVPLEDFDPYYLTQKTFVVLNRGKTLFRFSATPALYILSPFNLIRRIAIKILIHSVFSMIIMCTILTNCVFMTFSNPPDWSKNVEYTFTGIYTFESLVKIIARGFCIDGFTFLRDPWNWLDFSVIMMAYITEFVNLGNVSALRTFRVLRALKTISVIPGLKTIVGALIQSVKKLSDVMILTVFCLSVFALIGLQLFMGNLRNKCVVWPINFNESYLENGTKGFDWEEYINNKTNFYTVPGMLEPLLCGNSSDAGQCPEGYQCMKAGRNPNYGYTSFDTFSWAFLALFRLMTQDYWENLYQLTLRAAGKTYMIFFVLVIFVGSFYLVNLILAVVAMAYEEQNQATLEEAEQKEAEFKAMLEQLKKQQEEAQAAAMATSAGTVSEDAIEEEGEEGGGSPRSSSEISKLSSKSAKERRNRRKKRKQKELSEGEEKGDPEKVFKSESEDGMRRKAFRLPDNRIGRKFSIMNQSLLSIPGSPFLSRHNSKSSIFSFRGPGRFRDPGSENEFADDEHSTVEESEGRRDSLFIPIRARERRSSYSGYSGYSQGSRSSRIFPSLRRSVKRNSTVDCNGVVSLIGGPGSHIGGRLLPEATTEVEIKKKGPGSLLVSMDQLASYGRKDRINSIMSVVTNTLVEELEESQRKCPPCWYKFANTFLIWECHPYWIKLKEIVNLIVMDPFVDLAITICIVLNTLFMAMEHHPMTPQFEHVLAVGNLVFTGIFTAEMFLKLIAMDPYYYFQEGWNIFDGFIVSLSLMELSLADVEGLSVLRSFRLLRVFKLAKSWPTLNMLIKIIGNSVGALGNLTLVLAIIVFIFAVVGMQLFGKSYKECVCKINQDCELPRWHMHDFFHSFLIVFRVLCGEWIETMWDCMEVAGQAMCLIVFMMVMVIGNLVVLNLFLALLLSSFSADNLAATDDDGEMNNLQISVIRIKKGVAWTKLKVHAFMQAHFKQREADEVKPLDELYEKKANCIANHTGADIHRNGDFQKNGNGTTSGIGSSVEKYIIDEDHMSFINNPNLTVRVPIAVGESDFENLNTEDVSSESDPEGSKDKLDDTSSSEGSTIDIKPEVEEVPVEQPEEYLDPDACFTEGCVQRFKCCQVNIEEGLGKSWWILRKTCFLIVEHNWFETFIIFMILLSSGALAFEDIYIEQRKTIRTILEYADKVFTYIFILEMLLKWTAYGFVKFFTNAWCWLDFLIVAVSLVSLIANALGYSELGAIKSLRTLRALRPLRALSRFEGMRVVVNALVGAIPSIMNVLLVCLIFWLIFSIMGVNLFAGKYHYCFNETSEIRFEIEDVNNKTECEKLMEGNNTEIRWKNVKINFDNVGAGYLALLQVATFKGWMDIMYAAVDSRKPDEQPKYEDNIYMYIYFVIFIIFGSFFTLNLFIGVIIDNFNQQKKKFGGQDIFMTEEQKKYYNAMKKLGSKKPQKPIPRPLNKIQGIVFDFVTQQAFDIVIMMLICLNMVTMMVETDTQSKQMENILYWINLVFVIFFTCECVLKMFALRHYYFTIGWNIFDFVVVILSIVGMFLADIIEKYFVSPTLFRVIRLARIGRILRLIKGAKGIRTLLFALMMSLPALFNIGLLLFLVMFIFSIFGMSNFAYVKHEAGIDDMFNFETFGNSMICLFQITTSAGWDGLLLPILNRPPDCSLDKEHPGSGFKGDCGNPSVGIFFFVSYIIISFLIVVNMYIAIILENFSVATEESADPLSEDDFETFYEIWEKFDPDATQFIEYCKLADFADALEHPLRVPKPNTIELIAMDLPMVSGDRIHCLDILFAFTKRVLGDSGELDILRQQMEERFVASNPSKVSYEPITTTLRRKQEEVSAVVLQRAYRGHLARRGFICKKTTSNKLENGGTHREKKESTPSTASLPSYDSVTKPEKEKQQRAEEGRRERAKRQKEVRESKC
Kind of data set: Peak INa use-dependent block (UDB-10 Hz), automated patch clamp in HEK cells. The class given is cell-based. The note with it: for UDB preference to TB: TB IC50 / UDB IC50; for Ratio to Pers. INa (Peak INa UDB-10 Hz): UDB IC50 / persistent INa IC50; for activity dependent block of peak INa: in words, FIGS. 7A-7C; for Peak INa UDB-10 Hz Hill slope: use-dependent block 10 Hz.

For data set [5], the target named is T2, human NaV1.6. Kind of data set: Persistent (late) INa inhibition, ATX-II activated, automated patch clamp in HEK cells. Type of data set: cell-based. As to conditions: for Persistent INa Hill slope: hNaV1.6 in HEK cells, ATX-II.
For data set [6], the target named is T2, human NaV1.6. Kind of data set: Peak INa tonic block (TB), automated patch clamp in HEK cells. The class given is cell-based. As to conditions: for Ratio to Pers. INa (Peak INa TB): peak INa TB IC50 / persistent INa IC50; for Peak INa TB Hill slope: tonic block.
In data set [7] the test system is psychomotor seizures induced by 6-Hz electrical stimulation in wild-type CD-1 mice. Kind of data set: 6-Hz psychomotor seizure model. As to conditions: 600 mg/kg intraperitoneally. Type of data set: in vivo, mouse. An excerpt: This study evaluated the efficacy of Compound 1 in attenuating psychomotor seizures induced by 6-Hz electrical stimulation at two different stimulation intensities (32 and 44 mA) in wild-type CD-1 mice. Psychomotor seizures are defined as the expression of at least one of the following behaviors: stun/immobility, forelimb clonus, straub tail or lateral head movement within 30 seconds of the stimulus. Protection is defined as a complete absence of the above behaviors within 30 seconds of the stimulus. Doses of Compound 1 used were 1 mg/kg, 3 mg/kg and 6 mg/kg administered orally. Valproate (600 mg/kg, administered intraperitoneally) was used as a positive control.
Male CD-1 mice (Charles River Laboratories; St. Constant, Quebec, CAN) were used for the study. Body weights at the time the experiment was carried out were 30-40 grams. The mice were group-housed in polycarbonate cages according to standard operating procedures. Animals were maintained on a 12-hour light/12 hour dark cycle, with all experimental activities occurring during the light phase. Food and water were available ad libitum. Mice acclimated to the test facility for at least 72 hours prior to testing.
Treatment was conducted using Compound 1 and 35% 2-hydroxypropyl-β-cyclodextrin (35% HPBCD, used as a negative control). Compound 1 stock solution was prepared fresh each experiment day in 35% HPBCD. […] Valproate was prepared fresh each experiment day in a vehicle of saline and dosed at 10 mL/kg.
Mice were administered vehicle (35% HPBCD), a single dose of Compound 1 (1 mg/kg, 3 mg/kg or 6 mg/kg) or valproate (600 mg/kg). Vehicle and Compound 1 were administered via oral gavage 30 minutes prior to […]. Valproate was administered as an intraperitoneal injection 60 minutes prior to the electrical stimulus.
Immediately prior to conducting the 6-Hz seizure test, a brief neurological assessment was performed. Each animal was visually assessed and received a score from 0 to 3 according to the following scoring system::neurological score of 0 corresponds to a normal status; neurological score of 1 corresponds to a modest decrease in spontaneous activity; neurological score of 2 corresponds to a marked decrease in spontaneous activity; and neurological score of 3 corresponds to loss of righting reflex.
Corneal electrodes moistened with saline (ECT unit 57800; Ugo Basile) were used to deliver the electrical stimulus (6-Hz, 0.2 millisecond pulse width, 3 seconds duration). The current delivered was either 32 mA or 44 mA. Immediately after the electrical stimulus, each mouse was monitored continuously for 30 seconds by an observer blinded to the treatment group. […] Mice were scored for the presence or absence of each seizure behavior, with a maximum total score of 4. […] At the end of the 6-Hz seizure test, plasma and brain samples were collected.
Mice were anesthetized with isoflurane, whole blood was collected via cardiac puncture and brains were harvested. Whole blood was collected in potassium EDTA tubes and centrifuged at ˜3300 g for 5 minutes at 4° C. to isolate plasma. Plasma and brain samples were stored at −80° C. and analyzed to determine levels of Compound 1.
All statistical analyses were conducted using GraphPad Prism 9.3. Seizure scores were compared using Kruskal-Wallis test, followed by Dunn's post hoc and p<0.05 was considered statistically significant.

[8] abbreviates: 400 mg/kg intraperitoneally, listed as valproate.

T1 sequence (Q9UQD0 whole entry): as above

The term ED50 denotes the dose that gives a 50% effect, or the effect in half of the subjects. The term kon denotes a measure of how fast the partners come together. In the case of `NC(=O)N1c2ccccc2C=Cc2ccccc21` [Carbamazepine, carbamazepine], in data set [1], the “Ratio to Pers. INa (Peak INa VDB)” value is reported as 0.6 and the “Peak INa VDB Hill slope” value is recorded as “(0.9)”. In data set [2], this compound gave an ED50 of 5.4 mg/kg. The kon in data set [3] (development of inhibition of hNaV1.6 INa) amounted to 11000 M⁻¹ s⁻¹. Also, in data set [4], the “UDB preference to TB” value is “no UDB observed”, the “Ratio to Pers. INa (Peak INa UDB-10 Hz)” value worked out at 18, the “activity dependent block of peak INa” value was “minimal activity dependent block of peak INa” and the “Peak INa UDB-10 Hz Hill slope” value is on record as “(0.9)”. The “Persistent INa Hill slope” value in data set [5] is “(1.1)”. Further, in data set [5] (in words, FIGS. 1A-1D), the “preference for persistent INa relative to peak INa” value is given as “no preference for persistent INa”. In data set [6], the “Ratio to Pers. INa (Peak INa TB)” value came to 30 and the “Peak INa TB Hill slope” value was “(1.0)”.

With `O=C1NC(=O)C(c2ccccc2)(c2ccccc2)N1` [Phenytoin, phenytoin], in data set [1], the “Ratio to Pers. INa (Peak INa VDB)” value turned out to be 0.8 and the “Peak INa VDB Hill slope” value is “(1.0)”. In addition, in data set [4], the “Ratio to Pers. INa (Peak INa UDB-10 Hz)” value is listed as 15 and the “Peak INa UDB-10 Hz Hill slope” value was “(0.6)”. In addition, the “Persistent INa Hill slope” value in data set [5] is reported as “(0.8)”.

Consider `NC(=O)N1c2ccccc2CC(=O)c2ccccc21` [Oxcarbazepine, oxcarbazepine], for which, in data set [1], the “Ratio to Pers. INa (Peak INa VDB)” value is recorded as 0.3 and the “Peak INa VDB Hill slope” value is reported as “(1.1)”. Besides, the “Persistent INa Hill slope” value in data set [5] is on record as “(1.0)”. In addition, in data set [6], the “Ratio to Pers. INa (Peak INa TB)” value came out at 8 and the “Peak INa TB Hill slope” value is “(1.7)”.

Turning to `CCCC(CCC)C(=O)O` [Valproic acid], the “sedation before MES test” value in data set [2] (400 mg/kg intraperitoneally, listed as Valproate) is “mild to moderate sedation”. In data set [2] (setting [8]), the “protection against MES-induced hindlimb extension” value was “all mice n=24 were seizure-free; also recorded: protected mice from MES-induced tonic hindlimb extension” and the “sedation before MES test” value is “nearly all valproate-treated mice showed mild to moderate sedation”. Further, in data set [7], the “neurological score (average)” value was 1.2 and the spontaneous activity entry is “modest to marked decrease in spontaneous activity”.

`Nc1nnc(-c2cccc(Cl)c2Cl)c(N)n1` [Lamotrigine, lamotrigine]: in data set [1], the “Peak INa VDB Hill slope” value is “(0.9)”. Besides, it took a dose of 3.8 mg/kg to reach the 50% effect level in data set [2] (ED50). In data set [4], the “activity dependent block of peak INa” value is “minimal activity dependent block of peak INa” and the “Peak INa UDB-10 Hz Hill slope” value is given as “(1.0)”. In addition, the “Persistent INa Hill slope” value in data set [5] is given as “(1.0)”. Moreover, the “Peak INa TB Hill slope” value in data set [6] is recorded as “(0.8)”.

`COC[C@@H](NC(C)=O)C(=O)NCc1ccccc1` [Lacosamide, lacosamide]: in data set [1], the “Ratio to Pers. INa (Peak INa VDB)” value was determined as 0.3 and the “Peak INa VDB Hill slope” value is given as “(1.2)”. In addition, in data set [4], the “Ratio to Pers. INa (Peak INa UDB-10 Hz)” value is recorded as 0.8 and the “Peak INa UDB-10 Hz Hill slope” value is given as “(1.3)”. In addition, the “Persistent INa Hill slope” value in data set [5] was “(0.9)”.

Consider `Cc1cc(N2CCc3cc(F)ccc3C2)cc(C)c1NC(=O)CC(C)(C)C` [XEN1101], for which the ED50 in data set [2] worked out at 3.9 mg/kg.

Take `NC(=O)O[C@@H](Cn1ncnn1)c1ccccc1Cl` [Cenobamate, cenobamate]: in data set [1], the “Ratio to Pers. INa (Peak INa VDB)” value was found to be 0.9 and the “Peak INa VDB Hill slope” value is recorded as “(0.9)”. Further, in data set [2], the 50% effect level (ED50) was put at a dose of 4.1 mg/kg. Moreover, the on-rate (kon) in data set [3] is 19000 M⁻¹ s⁻¹. Further, in data set [4], the “UDB preference to TB” value was 2.3 ×, the “Ratio to Pers. INa (Peak INa UDB-10 Hz)” value was 11 and the “Peak INa UDB-10 Hz Hill slope” value is on record as “(0.7)”. The “Persistent INa Hill slope” value in data set [5] was “(1.1)”. Also, in data set [6], the “Ratio to Pers. INa (Peak INa TB)” value worked out at 24 and the “Peak INa TB Hill slope” value is “(1.1)”.

Values taken from US20250041284A1, “TREATMENT OF NEUROLOGICAL DISORDERS” (Praxis Precision Medicines, Inc., priority 2022, published 2025).
